The values that follow come from ChEMBL document CHEMBL1149151, “Macrocyclization in the design of non-phosphorus-containing Grb2 SH2 domain-binding ligands” (J Med Chem, 2004).

The target of data set [1] is T1, Growth factor receptor-bound protein 2 (Homo sapiens, UniProt P62993). Nature of the data set: In vitro Growth factor receptor bound protein 2-binding affinity in ELISA method.
Data set [2] can be described thus: kd value surface plasmon resonance (SPR) method. Format: ADME.
Data set [3] can be described thus: koff value surface plasmon resonance (SPR) method. Format: ADME.
The target of data set [4] is T1, Growth factor receptor-bound protein 2. As to the kind of experiment: In vitro Growth factor receptor bound protein 2-binding affinity in surface plasmon resonance (SPR) method.

Where “and” joins values, the source holds several entries; their conditions need not be identical. Equal entries are not always repeated.

T1 sequence (P62993 whole entry): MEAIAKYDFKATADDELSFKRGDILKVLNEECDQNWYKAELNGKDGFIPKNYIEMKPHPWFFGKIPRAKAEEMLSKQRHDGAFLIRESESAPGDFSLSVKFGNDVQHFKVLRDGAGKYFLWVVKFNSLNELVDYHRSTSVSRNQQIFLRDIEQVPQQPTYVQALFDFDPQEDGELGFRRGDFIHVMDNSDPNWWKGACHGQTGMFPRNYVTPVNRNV

`NC(=O)C[C@H](NC(=O)C1(NC(=O)[C@H](Cc2ccc(C(C(=O)O)C(=O)O)cc2)NC(=O)C(=O)O)CCCCC1)C(=O)NCCCc1cccc2ccccc12` came in with a half-maximal inhibitory concentration (IC50) in data set [1] of 22.1 nM.

In data set [2], `NC(=O)C[C@@H]1NC(=O)C2(CCCCC2)NC(=O)[C@@H](CC(=O)O)[C@@H](c2ccc(CP(=O)(O)O)cc2)/C=C/C[C@@H](Cc2cccc3ccccc23)CNC1=O` returned a dissociation constant (Kd) of 0.9 nM. Moreover, in data set [3], the Koff was determined as 0.0056 s⁻¹. In addition, in data set [4], the concentration for half-maximal inhibition (IC50) was 1.4 nM and 12.1 nM.

As for `NC(=O)C[C@H](NC(=O)C1(NC(=O)[C@H](Cc2ccc(CP(=O)(O)O)cc2)NC(=O)C(=O)O)CCCCC1)C(=O)NCCCc1cccc2ccccc12`, the IC50 was 10 nM in data set [1] and roughly 80 nM in data set [4]. The dissociation constant (Kd) in data set [2] is 128 nM. This compound yielded a Koff in data set [3] of 0.11 s⁻¹.

Regarding `NC(=O)C[C@@H]1NC(=O)C2(CCCCC2)NC(=O)[C@@H](CC(=O)O)[C@@H](c2ccc(C(C(=O)[O-])C(=O)[O-])cc2)/C=C/C[C@@H](Cc2cccc3ccccc23)CNC1=O.[Na+].[Na+]`, the IC50 in data set [1] was found to be 4.3 nM; in data set [4], 12.1 nM. Besides, in data set [2], binding was characterised by a dissociation constant (Kd) of 12.1 nM. The compound further returned a Koff in data set [3] of 0.044 s⁻¹.
